Here are results for three molecules from the NIST ThermoML archive (doi:10.1016/j.fluid.2017.04.010).

By viscosity is commonly meant the internal friction of a fluid under shear. By mass density is commonly meant mass per unit of volume.

This data set is described as follows: wn = mass fraction of the nth substance listed. The settings on record: 88.35 kPa, Liquid; for viscosity: Capillary tube (Ostwald / Ubbelohde) method.

SMILES strings stand for the structures. ± gives the expanded uncertainty stated by the source.

As for `O=P([O-])(O)O.[K+]` [monopotassium phosphate] + O, the viscosity runs as follows: (298.15 K, w1 = 0.2075) 1.198 ± 0.12 mPa·s; (313.15 K, w1 = 0.2579) 1.013 ± 0.1 mPa·s. Moreover, the mass density by setting is: (298.15 K, Weighing bottle method, w1 = 0.2075) 1144 ± 11 kg/m3; (313.15 K, Weighing bottle method, w1 = 0.2579) 1187.2 ± 12 kg/m3.
In the case of `[Cl-].[K+]` [potassium chloride] + O, the viscosity is, setting by setting: (298.15 K, w1 = 0.2672) 0.8122 ± 0.081 mPa·s; (313.15 K, w1 = 0.29) 0.6778 ± 0.068 mPa·s. For the same molecule, the mass density is 1180 ± 12 kg/m3 (298.15 K, Weighing bottle method, w1 = 0.2672) and 1192 ± 12 kg/m3 (313.15 K, Weighing bottle method, w1 = 0.29).
As to `O=S(=O)([O-])[O-].[K+].[K+]` [potassium sulfate] + O, the viscosity is, setting by setting: (298.15 K, w1 = 0.1156) 1.015 ± 0.1 mPa·s; (313.15 K, w1 = 0.1337) 0.7917 ± 0.08 mPa·s. The mass density stood at 1084.3 ± 11 kg/m3 (298.15 K, weighing bottle method, w1 = 0.1156) and 1097.7 ± 11 kg/m3 (313.15 K, weighing bottle method, w1 = 0.1337).
